These are literature values, as cited in paper PMC10401071 (Cancer Discovery, 2023).

In the data set the test system is WDLPS and DDLPS. Conditions: patients with WDLPS and DDLPS; cited from earlier work.

Each structure is given as a SMILES string.

As to `COc1cccc2c1C(=O)c1c(O)c3c(c(O)c1C2=O)C[C@@](O)(C(=O)CO)C[C@@H]3O[C@H]1C[C@H](N)[C@H](O)[C@H](C)O1` [doxorubicin], the overall survival is roughly 9 months.
